Source: US7579475B2, “S-(-)-amlodipine nicotinate and process for the preparation thereof” (Hanlim Pharmaceutical Co., Ltd., priority 2002, dated 2009)

Experiments:
[1] = Photostability test (incandescent lamp, 3 weeks)
Method: 1.0 g of S-(−)-amlodipine besylate prepared, using S-(−)-amlodipine, in accordance with U.S. Pat. No. 4,879,303 and 1.0 g of S-(−)-amlodipine nicotinate dihydrate obtained in Example 1, which were placed in glass schales (100×20 mm), were exposed at 25-30° C. for 3 weeks under an incandescent lamp (220V, 100 W) that was placed at 30 cm above the samples.

[2] = test system: spontaneously hypertensive rats (SHRs); experiment: In vivo anti-hypertensive activity in spontaneously hypertensive rats (tail-cuff systolic blood pressure); parameters: species or system rat; details: SHR; for Maximal anti-hypertensive effect (change of systolic blood pressure) / Intensity (maximal effect of S-(−)-amlodipine nicotinate to maximal effect of amlodipine nicotinate) / ED20 (amount necessary for 20% decrease in the blood pressure) / Intensity (reverse ratio of ED20 values relative to amlodipine nicotinate): oral; for Maximal anti-hypertensive effect (change of systolic blood pressure): mean % ± S.E.M.; for Effect on blood pressure (in words): oral, 1, 3 and 10 mg/kg
Method: Male SHRs (Charles Rever Co., Japan) aged 13-14 weeks were used.
The SHRs having a systolic blood pressure over 170 mmHg were divided into 7 groups, i.e., Test Groups 1 to 3 (for amlodipine nicotinate), Test Groups 4 to 6 (for S-(−)-amlodipine nicotinate) and a Control Group. Each Test Group and Control Group consisted of 6-8 SHRs (n=6-8).
The test compounds were dissolved in distilled water to prepare test solutions immediately prior to administration. The test solutions of amlodipine nicotinate and S-(−)-amlodipine nicotinate were prepared by dissolving 1, 3, and 10 mg/kg in distilled water (0.5 ml/100 g rat), respectively, and then administered orally to each Test Group. The vehicle (distilled water) was administered to Control Group.
The systolic blood pressure was measured with Multichannel 8000 (TSE Co., Germany), using a tail-cuff method. That is, the systolic blood pressures of a tail artery of each rat were measured before the administration of the test solutions and after 2, 4, 6, 8, 10, and 24 hours from the administration thereof. In order to facilitate the measurement of blood pressures, the test animals of each Group underwent warming at 37° C. for about 10 minutes before the measurements.
Statistical analysis of the test results were conducted by an unpaired t-test and ANOVA (one-way analysis of variance) with Sigma Stat program (Jandel Co., USA). The secondary evaluations were conducted by a Dunnett's multiple comparison test.

[3] = listed as S-(−)-Amlodipine nicotinate, dihydrate

SMILES	Water contents absorbed during the photostability test ([1]; 25-30° C., 3 weeks under incandescent lamp)	Difference in 1H-NMR before and after photostability test [1]	Photostability (overall conclusion) [1]	Maximal anti-hypertensive effect (change of systolic blood pressure) ([2]; 1 mg/kg) [%]	Intensity (maximal effect of S-(−)-amlodipine nicotinate to maximal effect of amlodipine nicotinate) ([2]; 3 mg/kg)	Maximal anti-hypertensive effect (change of systolic blood pressure) ([2]; 3 mg/kg) [%]	Intensity (maximal effect of S-(−)-amlodipine nicotinate to maximal effect of amlodipine nicotinate) ([2]; 10 mg/kg)	Maximal anti-hypertensive effect (change of systolic blood pressure) ([2]; 10 mg/kg) [%]	Effect on blood pressure (in words) [2]	ED20 (amount necessary for 20% decrease in the blood pressure) ([2]; dihydrate) [mg/kg]	Intensity (reverse ratio of ED20 values relative to amlodipine nicotinate) ([2]; dihydrate)	ED20 (amount necessary for 20% decrease in the blood pressure) [2, 3] [mg/kg]	Intensity (reverse ratio of ED20 values relative to amlodipine nicotinate) [2, 3]	ED20 (amount necessary for 20% decrease in the blood pressure) [2] [mg/kg]	Intensity (reverse ratio of ED20 values relative to amlodipine nicotinate) [2]	ED20 (amount necessary for 20% decrease in the blood pressure) ([2]; listed as Amlodipine nicotinate) [mg/kg]
CCOC(=O)C1=C(COCCN)NC(C)=C(C(=O)OC)[C@@H]1c1ccccc1Cl.O=S(=O)(O)c1ccccc1 [S-(−)-amlodipine besylate]	1.5-2.5	–	–	–	–	–	–	–	–	–	–	–	–	–	–	–
CCOC(=O)C1=C(COCCN)NC(C)=C(C(=O)OC)C1c1ccccc1Cl (stereo not drawn) [S-(−)-amlodipine nicotinate, S-(−)-amlodipine nicotinate dihydrate]	–	no significant difference	improved photostability	−12.4 ± 1.73	1.06	−28.3 ± 3.31	1.07	−43.6 ± 1.65	dose-dependently reduced blood pressures	1.91 ± 0.49	about 1.15	1.91 ± 0.49	1.15	–	–	–
CCOC(=O)C1=C(COCCN)NC(C)=C(C(=O)OC)[C@@H]1c1ccccc1Cl.O=C(O)c1cccnc1 [amlodipine nicotinate]	–	–	–	−10.20 ± 2.71	–	−26.8 ± 3.22	–	−40.9 ± 2.08	dose-dependently reduced blood pressures	–	–	–	–	2.19 ± 0.57	1.00	2.19 ± 0.57
